Test system: GBS laboratory strains
Test: Penicillin induced lysis (OD600 change)
Format: cell-based, Group B Streptococcus
Conditions: 100×MIC90 Penicillin G 22 hours
Experimental: In this series of study, the three GBS laboratory strains (i.e., A909, NEM316, and O90R) were cultured for 18 hours at 37° C. in THB. Subcultures in THB were subsequently grown to exponential phase (OD600˜0.3) at 37° C. Cells were treated with 100×MIC90 Penicillin G for an additional 22 hours. OD600 of these cell cultures before (O.D. initial) and after penicillin treatment (O.D. experimental) was measured (N=3). The values of O.D. experimental were subtracted from O.D. initial. (See FIG. 2).
(I) Bacterial Strains and Culture Conditions. GBS strains A909 (serotype IA), 515 (serotype IA), NEM316 (serotype III), COHI (serotype III), 2603V/R (serotype V) and O90R (non-typable) were used in this study. E. coli Top10 cells were used for the recombination experiments. GBS was cultured in Todd Hewitt broth (THB) or Tryptic Soy 5% sheep blood (TS) media and E. coli in Luria-broth (LB) medium or agar. Antibiotics were used at the following concentrations: for GBS—penicillin G (MIC90 0.06 μg ml^−1), ampicillin (MIC90 0.12 μg ml^−1), vancomycin (MIC90 2 μg ml^−1), cefazolin (MIC90 1 μg ml^−1) and chloramphenicol (5 μg ml^−1); for E. coli—ampicillin (50 μg ml^−1) and chloramphenicol (5 μg ml^−1). Both GBS and E. coli cultures were grown at 37° C. (II) Tolerance Using the MBC:MIC Ratio Method. Three GBS laboratory strains (i.e., A909, NEM316, and O90R) were cultured overnight for 18 h at 37° C. in THB. Subcultures in THB were subsequently grown to exponential phase (OD600˜0.3; i.e. 5×10^5 cfu/ml) at 37° C. Cell cultures were then exposed to different concentrations of antibiotics (Penicillin G, Ampicillin, Cefozolin or Vancomycin). […] Cell cultures were allowed to re-grow for an additional 24 h at 37° C. before the OD600 was measured. […] The initial (in.) cellular ATP concentration ([ATP]) was measured using the ENLITEN (Promega) luciferase based reaction kit. […] The experimental (exp.) cellular ATP was extracted and the concentration was measured as stated above. […]

## CC1(C)S[C@@H]2[C@H](NC(=O)Cc3ccccc3)C(=O)N2[C@H]1C(=O)O [Penicillin G]
GBS strain A909
  change in OD600 (lysis, FIG. 2): decrease in OD
GBS strain NEM316
  change in OD600 (lysis, FIG. 2): did not
GBS strain O90R
  change in OD600 (lysis, FIG. 2): did not
